Data: PMC6680430, “Quantitative Prediction of Human Pharmacokinetics and Pharmacodynamics of CKD519, a Potent Inhibitor of Cholesteryl Ester Transfer Protein (CETP)” (Pharmaceutics, 2019)

Tests used:
[1] = animal full PK study in rats (NCA and PK model); type: in vivo; details: rat; for Tmax: median (range)
Procedure: (§1) Animal PK data for analysis were collected from preclinical studies performed at ChongKunDang laboratory. All animal experiments were performed with relevant guidelines and regulations, and the protocol was approved by the Institutional Animal Care and Use Committee (IACUC) of ChongKunDang (Approval number: S-13-015). A single dose of CKD519 was administered either orally or via intravenous infusion to hamsters (intravenous dose of 0.5 mg/kg, oral dose of 3, 15, or 45 mg/kg, n = 30); rats (intravenous dose of 0.5 mg/kg, oral dose of 5, 15, or 45 mg/kg, n = 20); and monkeys (intravenous dose of 0.1 mg/kg, oral dose of 1, 5, or 30 mg/kg, n = 16). The identical solution was administered to all animal species in the fasted state. Plasma CKD519 concentration was measured before and at 0.083, 0.25, 0.5, 1, 2, 4, 8, and 24 h after administration in hamsters and rats, and before and at 0.083, 0.25, 0.5, 1, 2, 4, 6, 8, 12, 24, 48, and 72 h after administration in monkeys. Two hamsters given identical doses were sampled in a rotating manner.
(§2) The plasma samples were stored at −70 °C before the analysis and were thawed at room temperature. […] A sensitive, specific, and validated liquid chromatography coupled with a tandem mass spectrometer (HPLC-MS/MS) assay was used for the determination of CKD519 concentration in animal plasma samples. A structural analogue of CKD519 was used as the internal standard. The validated working range was from 2 ng/mL (the lower limit of quantification, LLOQ) to 20,000 ng/mL. Quality control (QC) samples were analyzed together with the study samples. Intra-day and inter-day precision and accuracy results were within the acceptance criteria based on the Ministry of Food and Drug Safety (MFDS) guidelines. An exploratory data analysis was performed through non-compartmental analysis (NCA) using the NonCompart package (developed by Bae, version 0.4.4) in R (version 3.5.1, The R Foundation, Vienna, Austria).
(§3) Using the PK data from each species, nonlinear mixed-effect modeling was conducted using NONMEM (version 7.4, Icon Development Solutions, Ellicott City, MD, USA) reflecting the clues from NCA. The first-order conditional estimation method with interaction (FOCE-I) was used whenever applicable. The adequacy of the model was checked using changes in the objective function value (OFV), visual inspection of various diagnostic plots (goodness-of-fit (GOF) plot), and methods of visual predictive check (VPC) and bootstrap were used for the diagnostics on the model stability and parameter reliability. The significance of model improvement was evaluated using a likelihood-ratio test (LRT). In the nested models, the result was considered statistically significant if the OFV decreased more than 3.84 (p-value < 0.05, degree of freedom (df) = 1) and 5.99 (p-value < 0.05, df = 2). The degree of freedom is defined as the gap of the numbers of parameters of the two subsequent models that are being compared. In the case of non-nested models, the Akaike information criteria (AIC) value was used to select the model that best described the data. R (version 3.5.1., R Foundation for Statistical Computing, Vienna, Austria) was used for data preparation, NCA, graphical analysis, model diagnostics, and statistical summaries.
(§4) Initially, a two-compartment model with first-order absorption was developed to describe the biphasic curve, and several absorption structures (e.g., zero-order with absorption lag time, Weibull-type absorption) were applied to the base model if needed. The change in absolute bioavailability (F) by dose levels was also considered. […]

[2] = animal full PK study in monkeys (NCA and PK model); type: in vivo, Cynomolgus monkey; details: monkey; for Tmax: median (range)
Procedure: as §1, §2, §3, §4

[3] = PK model, final estimate (%RSE)
[4] = intravenous 0.5 mg/kg, NCA, mean ± SD
[5] = two-compartment PK model, final estimate (%RSE)
[6] = intravenous 0.1 mg/kg, NCA, mean ± SD

For COc1cc(F)c(C(C)C)cc1C1=C(CN2C(=O)O[C@H](c3cc(C(F)(F)F)cc(C(F)(F)F)c3)[C@@H]2C)CC(C)(C)CC1 [CKD519], the “α (scale parameter of Weibull absorption)” value [1, 3] was 3.86 (3.94%), the “β (shape parameter of Weibull absorption)” value [1, 3] was 2.59 (4.59%) and the AUClast [1, 4] was 3940 ± 585 ng·h/mL. For the same molecule, the “V/F * (V for intravenous)” value [1, 4] was 494 ± 126 mL, the ke [1, 4] was 0.0677 ± 0.0214 h⁻¹ and the t1/2 [1, 4] was 12.0 ± 2.98 h. For the same molecule, the Tmax ([1]; intravenous 0.5 mg/kg, NCA) was 0.083 (0.083–0.083) h, the AUClast ([1]; oral 5 mg/kg, NCA, mean ± SD) was 6640 ± 932 ng·h/mL and the CL/F ([1]; oral 5 mg/kg, NCA, mean ± SD) was 188 ± 28.6 mL/h. The Cmax ([1]; oral 5 mg/kg, NCA, mean ± SD) was 893 ± 231 ng/mL, the V/F ([1]; oral 5 mg/kg, NCA, mean ± SD) was 2860 ± 1930 mL and the ke ([1]; oral 5 mg/kg, NCA, mean ± SD) was 0.0784 ± 0.0245 h⁻¹. The t1/2 ([1]; oral 5 mg/kg, NCA, mean ± SD) was 10.0 ± 4.78 h, the Tmax ([1]; oral 5 mg/kg, NCA) was 3 (3–4) h and the AUClast ([1]; oral 15 mg/kg, NCA, mean ± SD) was 11600 ± 3240 ng·h/mL. It also gave a CL/F ([1]; oral 15 mg/kg, NCA, mean ± SD) of 323 ± 82.8 mL/h, a Cmax ([1]; oral 15 mg/kg, NCA, mean ± SD) of 2040 ± 448 ng/mL and a V/F ([1]; oral 15 mg/kg, NCA, mean ± SD) of 4770 ± 1740 mL. For the same molecule, the ke ([1]; oral 15 mg/kg, NCA, mean ± SD) was 0.0701 ± 0.0107 h⁻¹, the t1/2 ([1]; oral 15 mg/kg, NCA, mean ± SD) was 10.1 ± 1.82 h and the Tmax ([1]; oral 15 mg/kg, NCA) was 2 (2–4) h. It also gave an AUClast ([1]; oral 45 mg/kg, NCA, mean ± SD) of 12700 ± 1900 ng·h/mL, a CL/F ([1]; oral 45 mg/kg, NCA, mean ± SD) of 887 ± 140 mL/h and a V/F ([1]; oral 45 mg/kg, NCA, mean ± SD) of 10100 ± 1380 mL. For the same molecule, the ke ([1]; oral 45 mg/kg, NCA, mean ± SD) was 0.0876 ± 0.00791 h⁻¹, the t1/2 ([1]; oral 45 mg/kg, NCA, mean ± SD) was 7.97 ± 0.782 h and the Tmax ([1]; oral 45 mg/kg, NCA) was 3 (2–5) h. For the same molecule, the CL [1, 5] was 0.0326 (5.58%) L/h, the Q [1, 5] was 0.0404 (12.0%) L/h and the Vc [1, 5] was 0.0287 (6.41%) L. For the same molecule, the Vp [1, 5] was 0.285 (8.21%) L, the “α (scale parameter of Weibull absorption)” value [2, 3] was 5.44 (11.8%) and the “β (shape parameter of Weibull absorption)” value [2, 3] was 3.54 (6.50%). The AUClast [2, 6] was 5150 ± 1530 ng·h/mL, the “V/F * (V for intravenous)” value [2, 6] was 3500 ± 1380 mL and the ke [2, 6] was 0.0105 ± 0.00836 h⁻¹. For the same molecule, the t1/2 [2, 6] was 104 ± 80.0 h, the Tmax ([2]; intravenous 0.1 mg/kg, NCA) was 0.1665 (0.083–0.25) h and the AUClast ([2]; oral 1 mg/kg, NCA, mean ± SD) was 8940 ± 954 ng·h/mL. For the same molecule, the CL/F ([2]; oral 1 mg/kg, NCA, mean ± SD) was 230 ± 64.6 mL/h, the Cmax ([2]; oral 1 mg/kg, NCA, mean ± SD) was 752 ± 148 ng/mL and the V/F ([2]; oral 1 mg/kg, NCA, mean ± SD) was 17600 ± 4000 mL. For the same molecule, the ke ([2]; oral 1 mg/kg, NCA, mean ± SD) was 0.0140 ± 0.0057 h⁻¹, the t1/2 ([2]; oral 1 mg/kg, NCA, mean ± SD) was 59.9 ± 35.5 h and the Tmax ([2]; oral 1 mg/kg, NCA) was 5.5 (5–6) h. It also gave an AUClast ([2]; oral 5 mg/kg, NCA, mean ± SD) of 29500 ± 4840 ng·h/mL, a CL/F ([2]; oral 5 mg/kg, NCA, mean ± SD) of 309 ± 77.3 mL/h and a Cmax ([2]; oral 5 mg/kg, NCA, mean ± SD) of 4700 ± 1100 ng/mL. The V/F ([2]; oral 5 mg/kg, NCA, mean ± SD) was 50500 ± 16900 mL, the ke ([2]; oral 5 mg/kg, NCA, mean ± SD) was 0.00707 ± 0.00412 h⁻¹ and the t1/2 ([2]; oral 5 mg/kg, NCA, mean ± SD) was 125 ± 64.6 h. The Tmax ([2]; oral 5 mg/kg, NCA) was 7 (6–8) h, the AUClast ([2]; oral 30 mg/kg, NCA, mean ± SD) was 79100 ± 15600 ng·h/mL and the CL/F ([2]; oral 30 mg/kg, NCA, mean ± SD) was 999 ± 123 mL/h. The Cmax ([2]; oral 30 mg/kg, NCA, mean ± SD) was 10200 ± 2390 ng/mL, the V/F ([2]; oral 30 mg/kg, NCA, mean ± SD) was 67800 ± 44900 mL and the ke ([2]; oral 30 mg/kg, NCA, mean ± SD) was 0.0194 ± 0.0104 h⁻¹. The t1/2 ([2]; oral 30 mg/kg, NCA, mean ± SD) was 46.3 ± 26.8 h, the Tmax ([2]; oral 30 mg/kg, NCA) was 8 (8–8) h and the CL [2, 5] was 0.0344 (24.0%) L/h. For the same molecule, the Q [2, 5] was 0.0895 (49.9%) L/h, the Vc [2, 5] was 0.383 (74.7%) L and the Vp [2, 5] was 3.40 (51.5%) L.
